In ChEMBL document CHEMBL1156617, “Heme activates artemisinin more efficiently than hemin, inorganic iron, or hemoglobin” (Bioorg Med Chem, 2008):
The source made the active and inactive calls. The calls are words filed in the database; no cut-off is given here.

Assays:
[1] = Binding affinity to hemin in sodium acetate buffer at pH 5.0
[2] = Binding affinity to heme in sodium acetate buffer at pH 5.0
[3] = Binding affinity to heme in ammonium acetate buffer at pH 5.0 at 40 uM in presence of ferrocyanide
[4] = Binding affinity to oxyhemoglobin in phosphate buffer at pH 7.0 at room temperature over 24 hrs by spectrophotometry
[5] = Binding affinity to methemoglobin in phosphate buffer at pH 7.0 over 30 mins by spectrophotometry
[6] = Binding affinity to oxyhemoglobin in ammonium acetate buffer at pH 8.0 over 24 hrs by spectrophotometry
[7] = Binding affinity to oxyhemoglobin in phosphate buffer at pH 7.0 at 37 degC over 24 hrs by spectrophotometry
[8] = Binding affinity to methemoglobin in phosphate buffer at pH 5.0 over 30 mins by spectrophotometry

SMILES | Activity [1] | Activity [2] | Activity [3] | Activity [4] | Activity [5] | Activity [6] | Activity [7] | Activity [8]
C[C@@H]1CC[C@H]2[C@@H](C)C(=O)O[C@@H]3O[C@@]4(C)CC[C@@H]1[C@]32OO4 | inactive | Dose-dependent effect | Active |  |  |  |  | 
C[C@H]1[C@H](OC(=O)CCC(=O)O)O[C@@H]2O[C@@]3(C)CC[C@H]4[C@H](C)CC[C@@H]1[C@@]24OO3 |  |  |  | inactive | inactive | inactive | inactive | inactive
